Assay results reported in paper PMC12040169 (PLOS Biology, 2025).

Test: in vitro
Details: human, hela cells, % viability

Row | Compound | viability at 28.5 h, 10 µM [%]
1 | CC(C)(C)c1ccc(/C=C/C(=O)n2cccn2)cc1 [CBK263645] | 85.7
2 | CC(C)c1nc(C(=O)NCC2CCCN(c3ncccn3)C2)cs1 (stereo not drawn) [CBK304351] | 100
3 | O=c1cc(N2CCCCC2)cnn1Cc1nccn1C1CC1 [CBK307484] | 89.6
4 | Cc1nnc(NS(=O)(=O)c2ccc(OC(F)(F)F)cc2)s1 [CBK026673] | 95.9
5 | O=C(O)c1cccc(NC(=O)c2ccc(COc3ccc(-c4ccccc4)cc3)o2)c1 [CBK299778] | 105
6 | CN(C)S(=O)(=O)c1ccc(C(=O)Nc2ccc(-c3ccccc3)cc2)cc1 [CBK264978] | 96.2
7 | Cc1nc(CN2CCC(Cc3ccccc3)CC2)cs1 [CBK126438] | 95.7
8 | O=C(N[C@@H](Cn1cc(Cl)c(=O)[nH]c1=O)C(=O)O)C1CCC1 [CBK289659] | 89.2
9 | COc1ccc(C(=O)CCCN2CC3CCC(NC(=O)Nc4ccc(F)c(F)c4)CC3C2)cc1 (stereo not drawn) [CBK083514T] | 109
10 | O=C1CC(c2ccccc2O)CC2=C1C=Nc1ccccc1N2 (stereo not drawn) [CBK270287] | 97.4
11 | CCCCc1cc(=O)[nH]c(NCc2ccc(C(F)(F)F)cc2)n1 [CBK003946] | 92.5
12 | O=C([C@@H]1Cc2[nH]cnc2CN1Cc1cc2ccccc2o1)N1CCOCC1 [CBK288977] | 114
13 | CCOC(=O)Cc1csc(SC(C)C(=O)N2CCCc3ccccc32)n1 (stereo not drawn) [CBK304228] | 98.9
14 | CCCC(=O)c1ccc(S(=O)(=O)N2CCN(Cc3ccc(C(C)=O)cc3)CC2)cc1 [CBK063159] | 107
15 | CC12CC(NC(=O)N1c1ccc(C(=O)O)cc1)c1ccccc1O2 (stereo not drawn) [CBK287226] | 82.2
16 | OCCCNC(=S)Nc1ccc(Br)cc1Cl [CBK086487] | 82.3
17 | COc1cc(/C=N/Nc2nnn[nH]2)cc2c1OCO2 [CBK262253] | 100
18 | Clc1ccc(N2CCN(c3cnc4ccccc4n3)CC2)cc1Cl [CBK066903] | 97.8
19 | CCN1C(=O)CC2(C1=O)C(=O)N(Cc1cccc(CN3C(=O)CCC3=O)c1)c1ccccc12 (stereo not drawn) [CBK075508] | 104
20 | CC(NC1CCN(Cc2ccccc2)CC1)C12CC3CC(CC(c4ccc(Cl)cc4)(C3)C1)C2 (stereo not drawn) [CBK262877] | 90.1
21 | N#C/C(=C/c1ccc(-c2ccc(S(N)(=O)=O)cc2)o1)C(=O)Nc1ccccc1 [CBK263123] | 119
22 | COc1ccccc1CNC(=O)c1ccc(Cl)c(S(=O)(=O)N2CCOCC2)c1 [CBK267060] | 69.3

Row | Compound | viability at 28.5 h, 10 µM [%]
23 | Oc1ccc2cc(-c3ccc(OC(F)(F)F)cc3)cnc2n1 [CBK081300] | 32.8
24 | CCCn1nccc1S(=O)(=O)NCCN1CCCCC1CO (stereo not drawn) [CBK307259] | 82
25 | Nc1nc2nn([C@H]3C[C@@H](O)[C@@H](CO)O3)cc2c(=O)[nH]1 [CBK201218] | 90.3
26 | CC(C)N(CC(=O)N(c1ccccc1)c1ccccc1)C(C)C [CBK013303C] | 96.6
27 | CCn1c(SCc2nc(-c3cccs3)no2)nnc1-c1c[nH]c2ccccc12 [CBK268607] | 104
28 | O=C1COc2ccccc2C/C=C/CC2(CCNCC2)C(=O)NCCN1 [CBK291996] | 105
29 | O=[N+]([O-])c1cc(C(F)(F)F)ccc1NCCNC(=S)Nc1ccc(Cl)cc1 [CBK263578] | 92.9
30 | CC1=CC(C)C(CNCCN2CCNCC2)C(C)C1 (stereo not drawn) [CBK262832] | 90
31 | Cc1cc(=O)[nH]c(SCCC(=O)O)n1 [CBK268242] | 106
32 | COc1ccc(COC(=O)C2CC(=O)N(Cc3ccc(C)cc3)C2)cc1 (stereo not drawn) [CBK296624] | 89
33 | Cc1nn(C)c(Cl)c1S(=O)(=O)Nc1ccnn1C [CBK062072] | 85.6
34 | CCOC(=O)c1c(NC(=O)CC2Nc3ccccc3NC2=O)sc(C)c1C (stereo not drawn) [CBK263381] | 94.2
35 | CC(=O)c1c(-c2cccc3ccccc23)nc2n(CCN3CCCCC3)c3ccccc3n12 [CBK278243C] | 103
36 | Cc1ccc(C(=O)N(C)Cc2cc(-c3ccncc3)no2)c(=O)n1C [CBK307324] | 83.7
37 | Cc1ccc(C(=O)N2C[C@H]3CC[C@](O)(c4ccc(F)cc4)[C@H]3C2)o1 [CBK285267] | 95
38 | c1cncc(-c2nnc(SCc3nc4ccccc4[nH]3)o2)c1 [CBK264543] | 98.1
39 | CN(CC(=O)N1CCC[C@@H]2[C@H]1C/C=C/Cc1ccccc1OCC(=O)N2C)Cc1ccccn1 [CBK292078] | 91.5
40 | CC(C)CNC(=O)c1cc([C@H]2CC[C@H](CNC(=O)c3cnn(C)c3)CC2)nc2ccccc12 [CBK285867] | 114
41 | CCn1cc(-c2cncn2C(CCN(C)C)c2ccccc2)cn1 (stereo not drawn) [CBK281741] | 79.2
42 | O=C(O)COc1ccccc1/C=C/c1cc(C(F)(F)F)[nH]c(=O)n1 [CBK287017] | 103
43 | COC(=O)c1ccc(N2C(=O)CC(N3CCC(n4c(=O)[nH]c5ccccc54)CC3)C2=O)cc1 (stereo not drawn) [CBK268714] | 94.6
44 | Nc1ncccc1C(=O)OCc1ccc(-c2ccccc2)cc1 [CBK295353] | 94.2

Row | Compound | viability at 28.5 h, 10 µM [%]
45 | Cc1cc(-c2ccccc2)nc(SCC(=O)Nc2nnc(C)s2)n1 [CBK058194] | 87.3
46 | O=[N+]([O-])c1ccc(/C=N/CCCN2CCOCC2)cc1 [CBK261058] | 87.5
47 | O=C(NCc1cccc(C(F)(F)F)c1)c1cnoc1-c1ccc(Br)cc1 [CBK153718] | 96.9
48 | Cc1cc(NC(=O)c2ccc(Cl)c([N+](=O)[O-])c2)nc2c1c(=O)oc1ccccc12 [CBK291263] | 96.7
49 | C=CCn1c(Cc2csc(NC(=O)c3ccc(C(C)=O)s3)n2)n[nH]c1=S [CBK295299] | 77
50 | CC1=C(C(=O)Nc2ccc(Cl)cc2Cl)SCCO1 [CBK057784] | 96.5
51 | Cc1cc(C(=O)NC2CCCC2)n[nH]1 [CBK200240] | 94.2
52 | O=C(CO)N1CC2(CCN(CCc3cccc4ccccc34)CC2)c2ccccc21 [CBK137003] | 91.8
53 | NCCNC(=O)c1cc2cc(OC(F)(F)F)ccc2[nH]1 [CBK107368] | 118
54 | CC(=O)N1C[C@H](O)C[C@H]1C(=O)N1CC[C@H]2NC(=O)[C@H](Cc3ccccc3)NC(=O)C3(C/C=C/C[C@H]2C1)CCOCC3 [CBK292204] | 88.7
55 | CNCc1cc(Br)ccc1OC [CBK027857] | 113
56 | CC1CNCCC1n1nc(-c2cccs2)ccc1=O (stereo not drawn) [CBK284221] | 82.9
57 | COc1cc(CN2C[C@@H](c3ccccc3)[C@@H]3NC(=O)CCCC[C@H]32)cc(OC)c1 [CBK285646] | 89.6
58 | CC1CCCC(C)N1CC(=O)Nc1ccccc1Oc1ccccc1 (stereo not drawn) [CBK015824C] | 119
59 | O=C(Nc1ccc(OC(F)(F)F)cc1)N1CCN(Cc2ccc3c(c2)OCO3)CC1 [CBK074754] | 99.5
60 | N#Cc1ccccc1N1CCN(c2cncc(-c3ccc(CO)cc3)n2)CC1 [CBK037383] | 86.9
61 | Cn1cc(C(=O)O)c(NC(=O)c2ccccc2Cl)n1 [CBK000353] | 95.8
62 | COc1cc(C)ccc1S(=O)(=O)n1cnc2cc(C)c(C)cc21 [CBK287580] | 61.3
63 | Cc1nc(N)sc1-c1nnc(Nc2ccccc2)s1 [CBK267353] | 82.7
64 | O=C(CN1CCNCC1)Nc1ccc(Oc2ccccc2)cc1 [CBK267191C] | 102
65 | Cn1c(=O)n(C)c2cc(NC3=NS(=O)(=O)c4ccccc43)ccc21 [CBK270210] | 91.9
66 | O=C1NC2(CCCN(C(=O)c3cccs3)C2)Oc2ccccc21 (stereo not drawn) [CBK284799] | 93

Row | Compound | viability at 28.5 h, 10 µM [%]
67 | COc1ccc2cnc(C3CCCN(C(=O)C4CC4)C3)cc2c1C (stereo not drawn) [CBK284716] | 90.8
68 | Fc1cc(Br)ccc1-c1cn(-c2ccccc2)nn1 [CBK113148] | 80.7
69 | CC(C)(CSc1ncccn1)NS(=O)(=O)c1ccccc1 [CBK268282] | 88.3
70 | O=C(c1ccccc1)N1C[C@H](c2ccc(F)cc2)[C@H]2CN(CCc3ccccc3)CC[C@H]21 [CBK286291] | 98.2
71 | COc1ccc(CN2CCCN(c3cc(OCC4COc5ccccc5O4)ncn3)CC2)cc1 (stereo not drawn) [CBK083255T] | 88
72 | O=C(CSCc1ccc(Cl)cc1Cl)Nc1ccc(O)cc1C(=O)O [CBK275322] | 95
73 | Cn1c2c(c(=O)n(C)c1=O)[C@H]1[C@H](O)[C@H](O)C[C@H]1[C@@H](C(O)c1ccccc1)N2 (stereo partly drawn) [CBK303236] | 92.8
74 | Cc1onc(-c2ccccc2Cl)c1C(=O)Nc1ccc(S(=O)(=O)N2CCC(C)CC2)cc1 [CBK265463] | 107
75 | NCc1ccc(CN(Cc2cnc(-c3ccccc3)[nH]2)C(=O)Nc2ccc3c(c2)OCO3)cc1 [CBK046158C] | 89
76 | COc1ccccc1NCC(=O)n1nc(C)cc1C [CBK263879] | 97.8
77 | CN1CCC(N2CC[C@@H]3[C@H]2C(=O)NC[C@H](CCC(=O)NCc2ccc(F)cc2)N3C)CC1 [CBK289022] | 90.6
78 | CCOC(=O)c1cccc(NS(=O)(=O)c2ccc(C)c([N+](=O)[O-])c2)c1 [CBK034343] | 84.8
79 | COc1ccc(-c2nnc(S)n2/N=C\c2ccc(C(=O)O)cc2)cc1 [CBK264419] | 92.4
80 | Cc1ccc(SCCNS(=O)(=O)c2ccc3ccccc3c2)cc1 [CBK267504] | 88
81 | CCOc1ccc(NC(=O)C2C3C=CC(O3)C2C(=O)O)cc1 (stereo not drawn) [CBK261592] | 91.7
82 | COc1nc(N)nc2c1ncn2C1CC(O)C(CO)O1 (stereo not drawn) [CBK201314] | 89.4
83 | CCn1cc(C(=O)N2CCC(C(=O)O)CC2)c(=O)c2cc3c(cc21)OCO3 [CBK286713] | 111
84 | CCOC(=O)c1c(NC(=O)CSc2ncnc3sc(C)c(C)c23)sc(C)c1C [CBK266440] | 118
85 | CCn1c(CN2CCCC2c2noc(C)n2)nc2cc(F)ccc21 (stereo not drawn) [CBK305250] | 55.9
86 | OC(c1cccs1)C1CCN(Cc2ccc(Cn3cccn3)cc2)CC1 (stereo not drawn) [CBK307454] | 83.6

Same assay, conditions: human, hela cells, % viability, bulk resorufin, single well

Row | Compound | viability at 28.5 h, 10 µM [%]
87 | CN(C)[C@H]1CCC[C@@H]1C(=O)Nc1ccc(Cl)c(Cl)c1 [CBK003406] | 86.9
